For orientation: IC50 means the concentration that gives 50% inhibition.

The results in this text go back to patent US11524938B2, “Aromatic sulfonamide derivatives” (Bayer Pharma Aktiengesellschaft, priority 2016, dated 2022).

For the assay, the target named is T1, human P2X4 (Homo sapiens, UniProt Q99571).
T1 sequence (Q99571 1-388): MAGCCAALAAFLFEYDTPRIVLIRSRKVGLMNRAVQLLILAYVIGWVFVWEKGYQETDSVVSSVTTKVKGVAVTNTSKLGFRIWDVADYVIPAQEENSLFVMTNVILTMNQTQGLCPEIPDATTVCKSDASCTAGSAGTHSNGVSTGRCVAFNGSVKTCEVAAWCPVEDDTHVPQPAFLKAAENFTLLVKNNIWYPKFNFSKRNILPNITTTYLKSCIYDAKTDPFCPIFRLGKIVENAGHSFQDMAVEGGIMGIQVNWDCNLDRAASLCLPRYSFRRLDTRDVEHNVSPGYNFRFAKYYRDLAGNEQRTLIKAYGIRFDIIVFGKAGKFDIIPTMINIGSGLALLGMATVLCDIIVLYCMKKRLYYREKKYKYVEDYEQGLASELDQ
Put plainly: Human P2X4 HEK Cell FLIPR Assay. The note with it: agonist Bz-ATP at EC80; for Emax: HEK293, HEK293 cells, percentage of maximal inhibition, read-out: Human P2X4 HEK Cells (FLIPR Assay) avg Efficacy [%]; for IC50: HEK293 cells, individual values listed where some fall outside detection range. Type of assay: cell-based. Put shortly:
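Calcium flux read by FLIPR for 120 sec after Bz-ATP challenge at EC80 (established each assay day), following 30 min room-temperature compound preincubation in dye-loaded stable human P2X4 HEK293 cells. Peak RFU over basal normalized to agonist control; IC50, maximal inhibition and Hill coefficient from triplicate means.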

Some results are limits rather than exact numbers.

In the case of `NS(=O)(=O)c1cc(NC(=O)Cc2ccc(Cl)cc2)ccc1-n1cc(C(F)(F)F)cn1` [Example 108, 2-(4-Chlorophenyl)-N-{3-sulfamoyl-4-[4-(trifluoromethyl)-1H-pyrazol-1-yl]phenyl}-acetamide], the Emax is 35% and the IC50 is more than 25000 nM.
Regarding `NS(=O)(=O)c1cc(NC(=O)C(F)(F)c2ccccc2Cl)ccc1-n1cc(Cl)cn1` [Example 109, 2-(2-Chlorophenyl)-N-[4-(4-chloro-1H-pyrazol-1-yl)-3-sulfamoylphenyl]-2,2-difluoroacetamide], the Emax amounted to 86% and the IC50 came out at 655 nM.
Turning to `NS(=O)(=O)c1cc(NC(=O)Cc2ccccc2[N+](=O)[O-])ccc1-n1cc(C(F)(F)F)cn1` [Example 110, 2-(2-Nitrophenyl)-N-{3-sulfamoyl-4-[4-(trifluoromethyl)-1H-pyrazol-1-yl]phenyl}-acetamide], the Emax is 51% and the IC50 stood at 267 nM.
The corresponding values for `NS(=O)(=O)c1cc(NC(=O)Cc2ccc(Cl)cc2Cl)ccc1-n1cc(C(F)(F)F)cn1` [Example 111, 2-(2,4-Dichlorophenyl)-N-{3-sulfamoyl-4-[4-(trifluoromethyl)-1H-pyrazol-1-yl]phenyl}-acetamide] are 58% and 373 nM.
As for `COc1ccccc1CC(=O)Nc1ccc(-n2cc(C(F)(F)F)cn2)c(S(N)(=O)=O)c1` [Example 112, 2-(2-Methoxyphenyl)-N-{3-sulfamoyl-4-[4-(trifluoromethyl)-1H-pyrazol-1-yl]phenyl}-acetamide], the Emax was 62% and the IC50 came to 263 nM.
The corresponding values for `NS(=O)(=O)c1cc(NC(=O)Cc2c(F)cccc2Cl)ccc1-n1cc(C(F)(F)F)cn1` [Example 113, 2-(2-Chloro-6-fluorophenyl)-N-{3-sulfamoyl-4-[4-(trifluoromethyl)-1H-pyrazol-1-yl]phenyl}acetamide] are 86% and 133 nM.
As for `NS(=O)(=O)c1cc(NC(=O)Cc2cccc(F)c2)ccc1-n1cc(C(F)(F)F)cn1` [Example 114, 2-(3-Fluorophenyl)-N-{3-sulfamoyl-4-[4-(trifluoromethyl)-1H-pyrazol-1-yl]phenyl}-acetamide], the Emax stood at 69% and the IC50 was 367 nM.
On to `NS(=O)(=O)c1cc(NC(=O)Cc2cc(F)cc(F)c2)ccc1-n1cc(C(F)(F)F)cn1` [Example 115, 2-(3,5-Difluorophenyl)-N-{3-sulfamoyl-4-[4-(trifluoromethyl)-1H-pyrazol-1-yl]phenyl}-acetamide], for which the Emax stood at 57% and the IC50 was 802 nM.
The corresponding values for `NS(=O)(=O)c1cc(NC(=O)Cc2c(Cl)cccc2Cl)ccc1-n1cc(C(F)(F)F)cn1` [Example 116, 2-(2,6-Dichlorophenyl)-N-{3-sulfamoyl-4-[4-(trifluoromethyl)-1H-pyrazol-1-yl]phenyl}-acetamide] are 75% and 155 nM.
The corresponding values for `NS(=O)(=O)c1cc(NC(=O)Cc2ccccc2Br)ccc1-n1cc(C(F)(F)F)cn1` [Example 117, 2-(2-Bromophenyl)-N-{3-sulfamoyl-4-[4-(trifluoromethyl)-1H-pyrazol-1-yl]phenyl}-acetamide] are 66% and 102 nM.
Regarding `NS(=O)(=O)c1cc(NC(=O)Cc2ccc(F)c(F)c2)ccc1-n1cc(C(F)(F)F)cn1` [Example 118, 2-(3,4-Difluorophenyl)-N-{3-sulfamoyl-4-[4-(trifluoromethyl)-1H-pyrazol-1-yl]phenyl}-acetamide], the Emax was determined as 53% and the IC50 came to 347 nM.
`NS(=O)(=O)c1cc(NC(=O)Cc2ccc(F)cc2)ccc1-n1cc(C(F)(F)F)cn1` [Example 119, 2-(4-Fluorophenyl)-N-{3-sulfamoyl-4-[4-(trifluoromethyl)-1H-pyrazol-1-yl]phenyl}-acetamide]: the Emax amounted to 55% and the IC50 came out at 270 nM.
As for `NS(=O)(=O)c1cc(NC(=O)Cc2cccc(Cl)c2)ccc1-n1cc(C(F)(F)F)cn1` [Example 120, 2-(3-Chlorophenyl)-N-{3-sulfamoyl-4-[4-(trifluoromethyl)-1H-pyrazol-1-yl]phenyl}-acetamide], the Emax stood at 31% and the IC50 is more than 25000 nM.
On to `COc1ccc(CC(=O)Nc2ccc(-n3cc(C(F)(F)F)cn3)c(S(N)(=O)=O)c2)cc1` [Example 121, 2-(4-Methoxyphenyl)-N-{3-sulfamoyl-4-[4-(trifluoromethyl)-1H-pyrazol-1-yl]phenyl}-acetamide], for which the Emax worked out at 70% and the concentration for half-maximal inhibition (IC50) is 292 nM.
On to `NS(=O)(=O)c1cc(NC(=O)Cc2cccc(F)c2F)ccc1-n1cc(C(F)(F)F)cn1` [Example 122, 2-(2,3-Difluorophenyl)-N-{3-sulfamoyl-4-[4-(trifluoromethyl)-1H-pyrazol-1-yl]phenyl}-acetamide], for which the Emax stood at 88% and the half-inhibitory concentration (IC50) is 266 nM.
As to `Cc1ccccc1CC(=O)Nc1ccc(-n2cc(C(F)(F)F)cn2)c(S(N)(=O)=O)c1` [Example 123, 2-(2-Methylphenyl)-N-{3-sulfamoyl-4-[4-(trifluoromethyl)-1H-pyrazol-1-yl]phenyl}-acetamide], the Emax stood at 79% and the 50% inhibitory concentration (IC50) came out at 109 nM.
Consider `Cc1cccc(CC(=O)Nc2ccc(-n3cc(C(F)(F)F)cn3)c(S(N)(=O)=O)c2)c1` [Example 124, 2-(3-Methylphenyl)-N-{3-sulfamoyl-4-[4-(trifluoromethyl)-1H-pyrazol-1-yl]phenyl}-acetamide], for which the Emax was determined as 62% and the IC50 amounted to 166 nM.
Regarding `NS(=O)(=O)c1cc(NC(=O)Cc2ccccc2OC(F)F)ccc1-n1cc(C(F)(F)F)cn1` [Example 125, 2-[2-(Difluoromethoxy)phenyl]-N-{3-sulfamoyl-4-[4-(trifluoromethyl)-1H-pyrazol-1-yl]phenyl}acetamide], the Emax is 86% and the IC50 turned out to be 292 nM.
For `NS(=O)(=O)c1cc(NC(=O)Cc2cccnc2Cl)ccc1-n1cc(C(F)(F)F)cn1` [Example 126, 2-(2-Chloropyridin-3-yl)-N-{3-sulfamoyl-4-[4-(trifluoromethyl)-1H-pyrazol-1-yl]phenyl}acetamide], the Emax amounted to 92% and the half-maximal inhibitory concentration (IC50) was found to be 1910 nM.
As for `NS(=O)(=O)c1cc(NC(=O)Cc2ccc(F)cc2Cl)ccc1-n1cc(C(F)(F)F)cn1` [Example 127, 2-(2-Chloro-4-fluorophenyl)-N-{3-sulfamoyl-4-[4-(trifluoromethyl)-1H-pyrazol-1-yl]phenyl}acetamide], the Emax is 85% and the half-maximal inhibitory concentration (IC50) was 209 nM.
Regarding `Cc1ccc(Cl)c(CC(=O)Nc2ccc(-n3cc(C(F)(F)F)cn3)c(S(N)(=O)=O)c2)c1` [Example 128, 2-(2-Chloro-5-methylphenyl)-N-{3-sulfamoyl-4-[4-(trifluoromethyl)-1H-pyrazol-1-yl]-phenyl}acetamide], the Emax stood at 91% and the IC50 stood at 107 nM.
For `NS(=O)(=O)c1cc(NC(=O)Cc2ccccc2OC(F)(F)F)ccc1-n1cc(C(F)(F)F)cn1` [Example 129, N-{3-Sulfamoyl-4-[4-(trifluoromethyl)-1H-pyrazol-1-yl]phenyl}-2-[2-(trifluoro-methoxy)phenyl]acetamide], the Emax amounted to 89% and the IC50 came to 157 nM.
Regarding `NS(=O)(=O)c1cc(NC(=O)Cc2cc(F)c(F)cc2Cl)ccc1-n1cc(C(F)(F)F)cn1` [Example 130, 2-(2-Chloro-4,5-difluorophenyl)-N-{3-sulfamoyl-4-[4-(trifluoromethyl)-1H-pyrazol-1-yl]phenyl}acetamide], the Emax came to 71% and the concentration for half-maximal inhibition (IC50) amounted to 284 nM.
As for `NS(=O)(=O)c1cc(NC(=O)Cc2cccc(C(F)(F)F)c2Cl)ccc1-n1cc(C(F)(F)F)cn1` [Example 131, 2-[2-Chloro-3-(trifluoromethyl)phenyl]-N-{3-sulfamoyl-4-[4-(trifluoromethyl)-1H-pyrazol-1-yl]phenyl}acetamide], the Emax came to 58% and the half-inhibitory concentration (IC50) amounted to 155 nM.
The corresponding values for `Cc1ccc(F)c(CC(=O)Nc2ccc(-n3cc(C(F)(F)F)cn3)c(S(N)(=O)=O)c2)c1Cl` [Example 132, 2-(2-Chloro-6-fluoro-3-methylphenyl)-N-{3-sulfamoyl-4-[4-(trifluoromethyl)-1H-pyrazol-1-yl]phenyl}acetamide] are 62% and 80 nM.
As for `NS(=O)(=O)c1cc(NC(=O)Cc2c(F)ccc(F)c2Cl)ccc1-n1cc(C(F)(F)F)cn1` [Example 133, 2-(2-Chloro-3,6-difluorophenyl)-N-{3-sulfamoyl-4-[4-(trifluoromethyl)-1H-pyrazol-1-yl]phenyl}acetamide], the Emax was 82% and the 50% inhibitory concentration (IC50) was 107 nM.
As to `NS(=O)(=O)c1cc(NC(=O)Cc2c(Cl)cccc2C(F)(F)F)ccc1-n1cc(C(F)(F)F)cn1` [Example 134, 2-[2-Chloro-6-(trifluoromethyl)phenyl]-N-{3-sulfamoyl-4-[4-(trifluoromethyl)-1H-pyrazol-1-yl]phenyl}acetamide], the Emax is 89% and the IC50 stood at 147 nM.
